Test results reported in US7833795B2, “Assessment of cardiovascular risk using isoprostane biomarkers and COX-2 selective inhibitors” (The Trustees of the University of Pennsylvania, priority 2004, dated 2010).

Columns and labels:
Assay type in all cases: in vivo, rat
[1] = test system: Male Fisher 344 rats; assay: Plasma lipid hydroperoxides (LPO assay kit) after CCl4; conditions: for LOOH (by LPO assay kit): plasma
Experimental: (§1) Animals and treatment protocol: Male Fisher 344 rats (260-280 g) obtained from Charles River Laboratories (Raleigh, N.C.) were used in all experiments. The animals were housed three to a cage. Autoclaved hardwood bedding was used in solid-bottom polycarbonate cages with filter tops. Animal rooms were maintained at 20-25° C. with 35-70% relative humidity with alternating 12-hour light and dark cycles. The rats had free access to deionized, reverse-osmosis-treated water and received autoclaved NIH 31 rodent chow (Zeigler Bros., Gardners, Pa.) ad libitum. For all experiments, rats were fasted overnight and then administered intraperitoneal injections of carbon tetrachloride in canola oil. Control rats received an equal volume of canola oil. Fasting continued throughout the experiment. Rats were anesthetized with Nembutal (0.1 ml/100 g body weight) and 5 ml blood was removed from the dorsal aorta proximal to its bifurcation into the common iliac arteries.
(§2) Carbon tetrachloride (CCL4) treatment: Animals from each of the three dose groups (Control-canola oil, 120 mg/kg CCl4 i.p. and 1200 mg/kg CCl4 i.p.) were investigated at three time points (2, 7, and 16 hours after CCl4 injection). Indomethacin-pretreated rats were also investigated at the same three time points, and the meclofenamic acid-pretreated rats were investigated at one time point (7 hours). Each group consisted of five rats for each analysis, except the meclofenamic acid pretreatment group which consisted of six rats. Animal treatment, sample preparation, assessment of liver histology and serum enzyme activities are described elsewhere (Kadiiska et al., 2000, Free Radic. Biol. Med. 28: 838-845; Jackson, 1989, J. Pharmacol. Exp. Ther. 250: 9-21) and were carried out at NIEHS, Research Triangle Park, N.C.
(§3) Plasma sample preparation: Blood (5 ml) was drawn through single draw Vacutainer® needles (21 Gauge) into open Vacutainer® blood collection tubes containing heparin. The tubes were gently inverted 2-3 times for mixing and immediately placed on ice. Blood was centrifuged (2,000 rpm for 10 minutes at 4° C.) no more than 30 minutes after collection, and the plasma was collected, frozen on dry ice and stored at −70° C.
Two assays were used to measure the effect of CCl4 on lipid hydroperoxides. A lipid hydroperoxide assay kit (Catalog No. 705002) from Cayman Chemical Company (Ann Arbor, Mich.) was used to measure hydroperoxides directly, utilizing the redox reaction with ferrous ion. Hydroperoxides were extracted into chloroform and reacted with ferrous ions to produce ferric ions. The resulting ferric ions were detected using thiocyanate ion as the chromogen. The hydroperoxide concentration was determined based on the absorption at 504 nm using a Beckman DU-7 spectrophotometer at room temperature. The experiments were performed at National Institute of Environmental Health Sciences (NIEHS), Research Triangle Park, N.C.

[2] = test system: Male Fisher 344 rats; assay: Plasma TBARS after CCl4
Experimental: as §1, §2, §3
Malondialdehyde (MDA) in plasma was measured using several different assays. In one assay in Experimental Example 1, free MDA and other thiobarbituric acid-reactive substances (TBARS) (MDA-protein adducts) were measured with the thiobarbituric acid (TBA assay) (Draper et al., 1993, Free Radic. Biol. Med. 15: 353-363). One ml of biological sample was combined with 2.0 ml of 1:1 TCA/TBA (30% trichloracetic acid and 0.67% thiobarbituric acid) in the presence of 200 mM butylated hydroxytoluene (BHT) for spectrophotometric readings (Porter et al., 1976, Biochim. Biophys. ACTA 441: 506-512). The incubation mixture was heated for 20 minutes in boiling water. The samples were centrifuged (2,000 rpm for 10 minutes at 4° C.), and the TBARS concentration was determined based on the absorbance at 532 nm measured with a Beckman DU-7 spectrophotometer at room temperature. Measurements were done at NIEHS, Research Triangle Park, N.C. in the case of Experimental Example 1.

[3] = test system: Male Fisher 344 rats; assay: Plasma free plus esterified 8-iso-PGF2α by GC/MS; conditions: for Free plus esterified 8-iso-PGF2a (by GC-MS): plasma
Experimental: as §1
Indomethacin pretreatment: The indomethacin regimen used has been previously shown to inhibit COX activity in rats by 90% (dose of 5 mg/kg s.c. 24 hours, 12 hours, and 2 hours prior to the injection of CCl4) (Jackson, 1989, J. Pharmacol. Exp. Ther. 250: 9-21). An additional booster dose was injected 8 hours after the last injection of CCl4 for the measurements performed 16 hours after treatment with CCl4.
Meclofenamic acid pretreatment: Meclofenamic acid was injected at a dose of 5 mg/kg i.p. 12 h and 2 h prior to the injection of CCl4.
as §2, §3
Measurement of the sum of free plus esterified 8-iso-PGF2α in plasma were performed using an improved GC/MS-based analysis for the quantitation of this isoprostane in plasma. A detailed protocol for this extraction and quantitation has been published (Parker et al., 2001, Mol. Biotechnol. 18: 105-118). Measurements of the sum of free plus esterified 8-iso-PGF2α in plasma were performed at NIEHS, Research Triangle Park, N.C.

[4] = test system: Male Fisher 344 rats; assay: Comet assay of blood leucocyte DNA; conditions: CCl4 120 and 1200 mg/kg; 2, 7, 16 h
Experimental: as §1
Carbon tetrachloride (CCL4) treatment: Animals from each of the three dose groups (Control-canola oil, 120 mg/kg CCl4 i.p. and 1200 mg/kg CCl4 i.p.) were investigated at three time points (2, 7, and 16 hours after CCl4 injection). Indomethacin-pretreated rats were also investigated at the same three time points, and the meclofenamic acid-pretreated rats were investigated at one time point (7 hours). […]

ClC(Cl)(Cl)Cl [CCl4, Carbon tetrachloride]
LOOH (by LPO assay kit) ([1]; CCl4 120 mg/kg i.p., 2 h): 0.96 µM | LOOH (by LPO assay kit) ([1]; CCl4 120 mg/kg i.p., 7 h): 1.20 µM | LOOH (by LPO assay kit) ([1]; CCl4 120 mg/kg i.p., 16 h): 1.60 µM | LOOH (by LPO assay kit) ([1]; CCl4 1200 mg/kg i.p., 2 h): 1.42 µM | LOOH (by LPO assay kit) ([1]; CCl4 1200 mg/kg i.p., 7 h): 1.35 µM | LOOH (by LPO assay kit) ([1]; CCl4 1200 mg/kg i.p., 16 h): 1.64 µM | increase of lipid hydroperoxides compared to controls (kit) ([1]; high dose CCl4, 2 hour): 3 fold | TBARS ([2]; CCl4 120 mg/kg i.p., 2 h): 4.1 µM | TBARS ([2]; CCl4 120 mg/kg i.p., 7 h): 10.4 µM | TBARS ([2]; CCl4 120 mg/kg i.p., 16 h): 13.0 µM | TBARS ([2]; CCl4 1200 mg/kg i.p., 2 h): 4.2 µM | TBARS ([2]; CCl4 1200 mg/kg i.p., 7 h): 9.4 µM | TBARS ([2]; CCl4 1200 mg/kg i.p., 16 h): 10.7 µM | Free plus esterified 8-iso-PGF2a (by GC-MS) ([3]; CCl4 120 mg/kg i.p., 2 h): 3.07 ng/mL | Free plus esterified 8-iso-PGF2a (by GC-MS) ([3]; CCl4 120 mg/kg i.p., 7 h): 1.79 ng/mL | Free plus esterified 8-iso-PGF2a (by GC-MS) ([3]; CCl4 120 mg/kg i.p., 16 h): 0.93 ng/mL | Free plus esterified 8-iso-PGF2a (by GC-MS) ([3]; CCl4 1200 mg/kg i.p., 2 h): 6.63 ng/mL | Free plus esterified 8-iso-PGF2a (by GC-MS) ([3]; CCl4 1200 mg/kg i.p., 7 h): 4.39 ng/mL | Free plus esterified 8-iso-PGF2a (by GC-MS) ([3]; CCl4 1200 mg/kg i.p., 16 h): 1.68 ng/mL | increase of free plus esterified plasma 8-iso-PGF2α ([3]; high dose CCl4, 2 h): 15 fold | increase of free plus esterified plasma 8-iso-PGF2α ([3]; high dose CCl4, 7 h): 10 fold | increase of free plus esterified plasma 8-iso-PGF2α ([3]; high dose CCl4, 16 h): 4 fold | Comet assay: % migrated DNA, tail length, tail moment [4]: statistically significant increase only at the low dose of CCl4 at 16 hours
